The record followed here is US10988477B2 (Merck Patent GmbH, priority 2018, dated 2021).

Bounds are passed on as bounds.

For one experiment, the target named is GCN2 kinase (Homo sapiens, UniProt Q9P2K8). The experiment can be described thus: GCN2 enzyme inhibition assay (Transcreener ADP2 fluorescence polarization). Conditions: Enzyme activity for compounds of Formula IV; Ki(app), 280 μM ATP, 25° C. The format is biochemical. In short, it runs like this:
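ADP formation read by Transcreener FP after a 1 h, 25 °C kinase reaction containing 280 μM ATP, 200 μM (RS)7 substrate and 4 nM GCN2, pH 7.5 Tris buffer. Compounds (0–8 μM final) were added 10 min before ATP. Percent inhibition gave IC50 and apparent Ki via tight-binding fit.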
In general terms: Polarisation of emitted light reports the rotation of a fluorescent probe.

Experiment [1] has as its target intracellular GCN2 (phosphorylation of the GCN2 substrate eIF2α) (Homo sapiens, UniProt Q9P2K8). In words: GCN2 cellular inhibition assay (AlphaScreen SureFire P-eIF2α Ser51, borrelidin-treated U2OS cells). The format is cell-based. As to conditions: compounds of Formula IV; biomarker assay, phosphorylated eIF2α Ser51 in borrelidin-treated U2OS cells. In short, it runs like this:
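First, U2OS cells are plated and left overnight at 37 °C. Next, compounds (from 40 μM final, 4-fold steps) and 10 μM borrelidin are added for 1 h, cells lysed, and phospho-Ser51 eIF2α detected by AlphaScreen bead sandwich. Inhibition is computed versus borrelidin-only wells.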
For orientation: In Alpha technology, singlet oxygen from a donor bead excites a nearby acceptor bead.

intracellular GCN2 (phosphorylation of the GCN2 substrate eIF2α), sequence (Q9P2K8 whole entry): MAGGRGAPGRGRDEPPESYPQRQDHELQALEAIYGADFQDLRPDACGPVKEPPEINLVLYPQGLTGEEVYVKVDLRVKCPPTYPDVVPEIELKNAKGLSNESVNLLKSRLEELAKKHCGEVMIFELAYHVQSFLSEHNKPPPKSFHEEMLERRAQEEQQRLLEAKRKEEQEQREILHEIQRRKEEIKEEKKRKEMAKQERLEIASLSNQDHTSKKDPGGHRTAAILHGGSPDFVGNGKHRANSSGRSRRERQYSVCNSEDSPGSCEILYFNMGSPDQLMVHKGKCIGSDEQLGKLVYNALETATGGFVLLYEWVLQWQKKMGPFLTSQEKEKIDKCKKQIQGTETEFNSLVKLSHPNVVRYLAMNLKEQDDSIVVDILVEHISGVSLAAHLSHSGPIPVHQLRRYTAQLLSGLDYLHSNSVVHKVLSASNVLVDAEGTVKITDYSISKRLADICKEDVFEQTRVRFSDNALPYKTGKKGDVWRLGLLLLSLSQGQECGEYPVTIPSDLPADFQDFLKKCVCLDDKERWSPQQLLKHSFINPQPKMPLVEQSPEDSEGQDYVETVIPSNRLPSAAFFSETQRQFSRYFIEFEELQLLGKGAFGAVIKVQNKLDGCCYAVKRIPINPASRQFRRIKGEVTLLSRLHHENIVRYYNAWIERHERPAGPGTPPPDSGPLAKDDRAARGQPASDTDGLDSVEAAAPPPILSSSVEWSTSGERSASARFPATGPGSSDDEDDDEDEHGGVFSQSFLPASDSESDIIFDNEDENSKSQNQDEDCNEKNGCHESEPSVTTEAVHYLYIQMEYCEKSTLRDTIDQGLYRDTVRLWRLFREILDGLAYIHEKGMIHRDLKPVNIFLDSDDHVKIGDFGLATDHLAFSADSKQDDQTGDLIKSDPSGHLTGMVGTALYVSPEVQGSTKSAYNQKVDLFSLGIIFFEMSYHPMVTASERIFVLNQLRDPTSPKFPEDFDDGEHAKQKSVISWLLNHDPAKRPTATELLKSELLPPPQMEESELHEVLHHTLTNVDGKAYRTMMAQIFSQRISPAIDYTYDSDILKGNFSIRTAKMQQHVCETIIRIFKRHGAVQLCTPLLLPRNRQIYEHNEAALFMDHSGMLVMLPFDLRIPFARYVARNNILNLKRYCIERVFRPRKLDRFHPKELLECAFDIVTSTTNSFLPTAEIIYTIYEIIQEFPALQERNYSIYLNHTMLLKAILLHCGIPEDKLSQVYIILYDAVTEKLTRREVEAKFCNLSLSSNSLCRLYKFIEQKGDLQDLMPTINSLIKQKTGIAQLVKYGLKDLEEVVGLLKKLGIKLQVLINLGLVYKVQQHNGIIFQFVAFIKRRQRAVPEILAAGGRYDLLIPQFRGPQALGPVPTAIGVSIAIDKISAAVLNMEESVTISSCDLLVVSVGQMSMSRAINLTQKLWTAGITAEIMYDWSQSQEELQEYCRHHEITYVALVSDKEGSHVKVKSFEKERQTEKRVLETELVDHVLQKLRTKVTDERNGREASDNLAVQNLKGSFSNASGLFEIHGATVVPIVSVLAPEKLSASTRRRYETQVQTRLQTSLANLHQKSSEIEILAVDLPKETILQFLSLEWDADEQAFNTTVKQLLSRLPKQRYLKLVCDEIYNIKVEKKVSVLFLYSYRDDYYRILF
GCN2 kinase, sequence (Q9P2K8 whole entry): as above

In general, IC50 refers to the concentration that gives 50% inhibition. Lower therefore signals inhibition by little substance. Regarding `FC(F)(F)c1cn2c(-c3nccc(N4CCC(c5c[nH]nc5C(F)(F)F)C4)n3)cnc2cn1` (single isomer, unassigned) [IV-628, 6-(Trifluoromethyl)-3-(4-(3-(3-(trifluoromethyl)-1H-pyrazol-4-yl)pyrrolidin-1-yl)pyrimidin-2-yl)imidazo[1,2-a]pyrazine], the Ki on GCN2 kinase was in the range of 10 to 100 nM. In experiment [1], this compound yielded an IC50 of 500 to 5000 nM.
The like results for `FC(F)(F)c1cn2c(-c3nccc(N4CCC(c5c[nH]nc5C(F)(F)F)C4)n3)cnc2cn1` (single isomer, unassigned) [IV-629, 6-(Trifluoromethyl)-3-(4-(3-(3-(trifluoromethyl)-1H-pyrazol-4-yl)pyrrolidin-1-yl)pyrimidin-2-yl)imidazo[1,2-a]pyrazine] were, in that order, under 10 nM and 500 to 5000 nM.
In turn, `CP(C)(=O)C1CC(c2cn[nH]c2)CN(c2ccnc(-c3cnc4cnc(C(F)(F)F)cn34)n2)C1` (single isomer, unassigned) [IV-632, (5-(1H-Pyrazol-4-yl)-1-(2-(6-(trifluoromethyl)imidazo[1,2-a]pyrazin-3-yl)pyrimidin-4-yl)piperidin-3-yl)dimethylphosphine oxide] showed a Ki at GCN2 kinase of 10 to 100 nM. In addition, the IC50 in experiment [1] was over 5000 nM.
Taken in the same sequence, the figures for `CP(C)(=O)C1CC(c2cn[nH]c2)CN(c2ccnc(-c3cnc4cnc(C(F)(F)F)cn34)n2)C1` (single isomer, unassigned) [IV-633, (5-(1H-Pyrazol-4-yl)-1-(2-(6-(trifluoromethyl)imidazo[1,2-a]pyrazin-3-yl)pyrimidin-4-yl)piperidin-3-yl)dimethylphosphine oxide] were 10 to 100 nM and over 5000 nM.
Taken in the same sequence, the figures for `CC1C(c2cn[nH]c2)N(CCO)C(C)CN1c1ccnc(-c2cnc3cnc(C(F)(F)F)cn23)n1` (single isomer, unassigned) [IV-636, 2-(3,6-Dimethyl-2-(1H-pyrazol-4-yl)-4-(2-(6-(trifluoromethyl)imidazo[1,2-a]pyrazin-3-yl)pyrimidin-4-yl)piperazin-1-yl)ethan-1-ol] were under 10 nM and 500 to 5000 nM.
Taken in the same sequence, the figures for `CC1CN(c2ccnc(-c3cnc4cnc(C(F)(F)F)cn34)n2)C(C)C(c2c[nH]cn2)O1` (single isomer, unassigned) [IV-638, 2-(1H-Imidazol-4-yl)-3,6-dimethyl-4-(2-(6-(trifluoromethyl)imidazo[1,2-a]pyrazin-3-yl)pyrimidin-4-yl)morpholine] were 100 to 1000 nM and over 5000 nM.
In the case of `CC1CN(c2ccnc(-c3cnc4cnc(C(F)(F)F)cn34)n2)C(C)C(c2c[nH]cn2)O1` (single isomer, unassigned) [IV-639, 2-(1H-Imidazol-4-yl)-3,6-dimethyl-4-(2-(6-(trifluoromethyl)imidazo[1,2-a]pyrazin-3-yl)pyrimidin-4-yl)morpholine], the Ki on GCN2 kinase is under 10 nM. Besides, the concentration for half-maximal inhibition (IC50) in experiment [1] was under 500 nM.
The like results for `CC1CN(c2cncc(-c3cnc4cnc(C(F)(F)F)cn34)n2)C(C)C(c2cn[nH]c2)N1` (single isomer, unassigned) [IV-649, 3-(6-(2,5-Dimethyl-3-(1H-pyrazol-4-yl)piperazin-1-yl)pyrazin-2-yl)-6-(trifluoromethyl)imidazo[1,2-a]pyrazine] were, in that order, 100 to 1000 nM and over 5000 nM.
Taken in the same sequence, the figures for `CC1CN(c2cncc(-c3cnc4cnc(C(F)(F)F)cn34)n2)C(C)C(c2cn[nH]c2)N1` (single isomer, unassigned) [IV-650, 3-(6-(2,5-Dimethyl-3-(1H-pyrazol-4-yl)piperazin-1-yl)pyrazin-2-yl)-6-(trifluoromethyl)imidazo[1,2-a]pyrazine] were under 10 nM and 500 to 5000 nM.
The like results for `CC1CN(c2ccnc(-c3cnc4cnc(C(F)(F)F)cn34)n2)CC(c2cn[nH]c2Cl)N1` (single isomer, unassigned) [IV-651, 3-[4-[3-(5-Chloro-1H-pyrazol-4-yl)-5-methyl-piperazin-1-yl]pyrimidin-2-yl]-6-(trifluoromethyl)imidazo[1,2-a]pyrazine] were, in that order, under 10 nM and under 500 nM.
`CC1CN(c2ccnc(-c3cnc4cnc(C(F)(F)F)cn34)n2)CC(c2cn[nH]c2Cl)N1` (single isomer, unassigned) [IV-652, 3-[4-[3-(5-Chloro-1H-pyrazol-4-yl)-5-methyl-piperazin-1-yl]pyrimidin-2-yl]-6-(trifluoromethyl)imidazo[1,2-a]pyrazine]: on GCN2 kinase, the Ki lay within 10 to 100 nM. For the same compound, the 50% inhibitory concentration (IC50) in experiment [1] fell in the range of 500 to 5000 nM.
The like results for `Cc1cc(N2CC(C)NC(c3cn[nH]c3)C2C)nc(-c2cnc3cnc(C(F)(F)F)cn23)n1` (single isomer, unassigned) [IV-669, 3-(4-(2,5-Dimethyl-3-(1H-pyrazol-4-yl)piperazin-1-yl)-6-methylpyrimidin-2-yl)-6-(trifluoromethyl)imidazo[1,2-a]pyrazine] were, in that order, 100 to 1000 nM and over 5000 nM.
`Cc1cc(N2CC(C)NC(c3cn[nH]c3)C2C)nc(-c2cnc3cnc(C(F)(F)F)cn23)n1` (single isomer, unassigned) [IV-670, 3-(4-(2,5-Dimethyl-3-(1H-pyrazol-4-yl)piperazin-1-yl)-6-methylpyrimidin-2-yl)-6-(trifluoromethyl)imidazo[1,2-a]pyrazine] showed a Ki on GCN2 kinase of under 10 nM. In addition, the IC50 in experiment [1] fell in the range of 500 to 5000 nM.
As for `CC1CN(c2ccnc(-c3cnc4cnc(C(F)(F)F)cn34)n2)C(C)C(c2c[nH]c(C(F)(F)F)n2)N1` (single isomer, unassigned) [IV-673, 3-(4-(2,5-Dimethyl-3-(2-(trifluoromethyl)-1H-imidazol-4-yl)piperazin-1-yl)pyrimidin-2-yl)-6-(trifluoromethyl)imidazo[1,2-a]pyrazine], the Ki at GCN2 kinase is under 10 nM. This compound also yielded an IC50 in experiment [1] of 500 to 5000 nM.
For `CC(C)(O)C1CC(c2cn[nH]c2)CN(c2ccnc(-c3cnc4cnc(C(F)(F)F)cn34)n2)C1` (single isomer, unassigned) [IV-682, 2-(5-(1H-Pyrazol-4-yl)-1-(2-(6-(trifluoromethyl)imidazo[1,2-a]pyrazin-3-yl)pyrimidin-4-yl)piperidin-3-yl)propan-2-ol], the Ki on GCN2 kinase was in the range of 10 to 100 nM. Further, the 50% inhibitory concentration (IC50) in experiment [1] fell in the range of 500 to 5000 nM.
In turn, `CC(C)(O)C1CC(c2cn[nH]c2)CN(c2ccnc(-c3cnc4cnc(C(F)(F)F)cn34)n2)C1` (single isomer, unassigned) [IV-683, 2-(5-(1H-Pyrazol-4-yl)-1-(2-(6-(trifluoromethyl)imidazo[1,2-a]pyrazin-3-yl)pyrimidin-4-yl)piperidin-3-yl)propan-2-ol] came in with a Ki at GCN2 kinase of 10 to 100 nM. The compound also displayed an IC50 in experiment [1] of 500 to 5000 nM.
The like results for `CC(C)(O)C1CC(c2cn[nH]c2)CN(c2ccnc(-c3cnc4cnc(C(F)(F)F)cn34)n2)C1` (single isomer, unassigned) [IV-684, 2-(5-(1H-Pyrazol-4-yl)-1-(2-(6-(trifluoromethyl)imidazo[1,2-a]pyrazin-3-yl)pyrimidin-4-yl)piperidin-3-yl)propan-2-ol] were, in that order, under 10 nM and under 500 nM.
The like results for `CC(C)(O)C1CC(c2cn[nH]c2)CN(c2ccnc(-c3cnc4cnc(C(F)(F)F)cn34)n2)C1` (single isomer, unassigned) [IV-685, 2-(5-(1H-Pyrazol-4-yl)-1-(2-(6-(trifluoromethyl)imidazo[1,2-a]pyrazin-3-yl)pyrimidin-4-yl)piperidin-3-yl)propan-2-ol] were, in that order, under 10 nM and under 500 nM.
